Active and inactive are the calls of the source. The calls are words filed in the database; no cut-off is given here.
Tests used:
Type in all cases: functional, organism-based
Felis catus [1] = assay: Ganglion-stimulant activity in cat assessed as pressor response up to 1000 ug/kg, iv
Felis catus [2] = assay: Ganglion-stimulant activity in iv dosed cat assessed as depressor response
Felis catus [3] = assay: Inhibition of McN-A-343-induced pressor response in iv dosed cat

| SMILES | Activity (Felis catus [1]) | Activity (Felis catus [2]) | inhibition (Felis catus [3]) |
| --- | --- | --- | --- |
| C[N+](C)(C)C[C@@H]1[C@@H](COC(=O)Nc2ccc(Cl)cc2)[C@H]2C=C[C@H]1C2 | inactive | inactive | inactive |
| C[N+](C)(C)CC#CCOC(=O)Nc1cccc(Cl)c1 | Active |  |  |
| C[N+](C)(C)C[C@@H]1[C@H]2CC[C@@H](C2)[C@@H]1COC(=O)Nc1ccc(Cl)cc1 | inactive | inactive | inactive |
| C[N+](C)(C)C[C@@H]1[C@H]2CC[C@@H](C2)[C@H]1COC(=O)Nc1ccc(Cl)cc1 | inactive | inactive | inactive |
| C[N+](C)(C)C[C@H]1[C@H]2CC[C@@H](C2)[C@@H]1COC(=O)Nc1ccc(Cl)cc1 | inactive | inactive | inactive |
| C[N+](C)(C)C[C@@H]1[C@H](COC(=O)Nc2ccc(Cl)cc2)[C@H]2C=C[C@H]1C2 | inactive | inactive | inactive |
| C[N+](C)(C)C[C@H]1[C@H]2CC[C@@H](C2)[C@H]1COC(=O)Nc1ccc(Cl)cc1 | inactive | inactive | inactive |
| C[N+](C)(C)C[C@H]1[C@@H](COC(=O)Nc2ccc(Cl)cc2)[C@H]2C=C[C@H]1C2 | inactive | inactive | inactive |
| C[N+](C)(C)C[C@H]1[C@H](COC(=O)Nc2ccc(Cl)cc2)[C@H]2C=C[C@H]1C2 | inactive | inactive | inactive |
